{"source": "paper PMC4496498", "about": "“Radiosynthesis, In Vivo Biological Evaluation, and Imaging of Brain Lesions with [^123I]-CLINME, a New SPECT Tracer for the Translocator Protein” (Disease Markers, 2015)", "key": {"TSPO [1]": {"biological_target": "T1, TSPO (Rattus norvegicus, UniProt P16257)", "assay": "In vitro autoradiography with [^125I]-CLINME on lesioned brain tissue", "type": "binding, SD rats", "design": "from tissue; host or cells: male Sprague-Dawley rats: peripheral organs and brain in vivo; AMPA-lesioned striatum; brain sections", "settings": "autoradiography, 16 nM [^125I]-CLINME"}, "TSPO [2]": {"biological_target": "T1, TSPO", "settings": "competing drug 1 mg/Kg i.v. 5 min prior to tracer, rats, 30 min p.i.", "experimental": "The saturation effect of [^123I]-CLINME uptake was studied in competition experiments by injecting CLINME (1 mg/Kg), 5 min prior to [^123I]-CLINME (0.7 MBq, 10 pmoles in 0.1 mL of 0.9% saline), via the tail vein, to 8–10-week-old male SD rats.\nThe drugs were dissolved in dimethyl sulfoxide/saline (1 : 5) and injected intravenously 5 min prior to [^123I]-CLINME. Groups of rats (n = 3-4) were sacrificed by CO2 administration followed by cervical fracture 30 min after administration of [^123I]-CLINME and peripheral organs (liver, spleen, lung, heart, kidney, and adrenals), blood, olfactory bulbs, and the remainder of the brain were removed. The radioactivity concentrations were calculated as described previously. Results were analysed by one-way analysis of variance (ANOVA) followed by Tukey's post hoc test for comparing the tissue radioactivity concentrations in the treated animals (n = 3-4) and in the controls (n = 6). The criterion for significance was P < 0.05."}}}
{"compound": "CCN(C)C(=O)Cc1c(-c2ccc([125I])cc2)nc2ccc(Cl)cn12", "note": "[[^125I]-CLINME]", "values": [{"measurement": "radioligand binding in the lesioned striatum compared to the contralateral one", "setting": "TSPO [1]", "value": "significantly increased"}]}
{"compound": "Ro 5-4864", "values": [{"measurement": "reduction of uptake of [^123I]-CLINME in the blood", "setting": "TSPO [2]", "value": "not significant"}, {"measurement": "decrease of [^123I]-CLINME uptake in the heart", "setting": "TSPO [2]; vs controls", "value": 77, "unit": "%"}, {"measurement": "decrease of [^123I]-CLINME uptake in the kidney", "setting": "TSPO [2]; vs controls", "value": 68, "unit": "%"}, {"measurement": "decrease of [^123I]-CLINME uptake in the lungs", "setting": "TSPO [2]; vs controls", "value": 62, "unit": "%"}, {"measurement": "decrease of [^123I]-CLINME uptake in the olfactory bulbs", "setting": "TSPO [2]; vs controls", "value": "nonsignificant reduction"}, {"measurement": "decrease of [^123I]-CLINME uptake in the remainder of the brain", "setting": "TSPO [2]; vs controls", "value": 23, "unit": "%"}, {"measurement": "increase of [^123I]-CLINME concentration in the adrenals", "setting": "TSPO [2]; vs controls", "value": 73, "unit": "%"}]}
